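1) Cells in 96-well plates. 2) Compound, 48 h, 5 concentrations. 3) Linear interpolation between surrounding doses. 4) Unreached endpoint = highest concentration. GI50: concentration for 50% inhibition of growth.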 Calls of active or inactive are those of the source. No stated cut-off is given here; in the data, active = GI50 up to about 1.1 µM and inactive = higher.
Experiments:
Assay in all cases: inhibition of tumour cell growth, NCI panel, 48 h
HCT-116 = test system: HCT-116
SK-OV-3 = test system: SK-OV-3
OVCAR-4 = test system: OVCAR-4
UACC-62 = test system: UACC-62
SK-MEL-2 = test system: SK-MEL-2
SN12C = test system: SN12C
DU-145 = test system: DU-145
NCI/ADR-RES = test system: NCI/ADR-RES
SF-539 = test system: SF-539
OVCAR-3 = test system: OVCAR-3
MCF7 = test system: MCF7
IGROV-1 = test system: IGROV-1
MDA-N = test system: MDA-N
LOX IMVI = test system: LOX IMVI
CAKI-1 = test system: CAKI-1
EKVX = test system: EKVX
KM12 = test system: KM12
NCI-H226 = test system: NCI-H226
SR = test system: SR
Hs-578T = test system: Hs-578T

| SMILES | GI50 (HCT-116) | GI50 (SK-OV-3) | GI50 (OVCAR-4) | GI50 (UACC-62) | GI50 (SK-MEL-2) | GI50 (SN12C) | GI50 (DU-145) | GI50 (NCI/ADR-RES) | GI50 (SF-539) | GI50 (OVCAR-3) | GI50 (MCF7) | GI50 (IGROV-1) | GI50 (MDA-N) | GI50 (LOX IMVI) | GI50 (CAKI-1) | GI50 (EKVX) | GI50 (KM12) | GI50 (NCI-H226) | GI50 (SR) | GI50 (Hs-578T) |
| --- | --- | --- | --- | --- | --- | --- | --- | --- | --- | --- | --- | --- | --- | --- | --- | --- | --- | --- | --- | --- |
| CO/C(N)=C(C#N)/N=C/c1cccnc1 | > 100 µM (inactive) | > 100 µM (inactive) | > 100 µM (inactive) | > 100 µM (inactive) | > 100 µM (inactive) | > 100 µM (inactive) | > 100 µM (inactive) | > 100 µM (inactive) | > 100 µM (inactive) | > 100 µM (inactive) | > 100 µM (inactive) | > 100 µM (inactive) | > 100 µM (inactive) | > 100 µM (inactive) | 71.9 µM (inactive) | > 100 µM (inactive) | > 100 µM (inactive) | > 100 µM (inactive) | – | – |
| O=C1CSC(c2c[nH]c3ccccc23)N1c1cccc([N+](=O)[O-])c1 (stereo not given) | 73.1 µM (inactive) | > 100 µM (inactive) | > 100 µM (inactive) | 80.5 µM (inactive) | – | > 100 µM (inactive) | 51.9 µM (inactive) | – | 82 µM (inactive) | > 100 µM (inactive) | 90.8 µM (inactive) | > 100 µM (inactive) | 34.8 µM (inactive) | 93.5 µM (inactive) | – | > 100 µM (inactive) | 24.4 µM (inactive) | – | > 100 µM (inactive) | – |
| O=C(O)CSc1nnc(COc2ccc(Cl)cc2)n1-c1ccccc1 | > 100 µM (inactive) | > 100 µM (inactive) | > 100 µM (inactive) | > 100 µM (inactive) | > 100 µM (inactive) | > 100 µM (inactive) | > 100 µM (inactive) | > 100 µM (inactive) | – | > 100 µM (inactive) | > 100 µM (inactive) | > 100 µM (inactive) | > 100 µM (inactive) | > 100 µM (inactive) | > 100 µM (inactive) | > 100 µM (inactive) | > 100 µM (inactive) | > 100 µM (inactive) | – | – |
| Brc1cccc[n+]1-c1ccc2cc(-[n+]3ccccc3Br)ccc2c1 | 39.6 µM (inactive) | 3.01 µM (inactive) | – | 45.1 µM (inactive) | 32.2 µM (inactive) | 42.4 µM (inactive) | 14.8 µM (inactive) | 53.3 µM (inactive) | 19.3 µM (inactive) | 19.8 µM (inactive) | 35.7 µM (inactive) | 11.4 µM (inactive) | – | 16.3 µM (inactive) | > 100 µM (inactive) | 47.6 µM (inactive) | 20.8 µM (inactive) | > 100 µM (inactive) | – | 56.9 µM (inactive) |
| CCCCCCCCCCCC(=O)OCCOCCOCCOCCOCCOC(=O)CCCCCCCCCCC | > 100 µM (inactive) | > 100 µM (inactive) | > 100 µM (inactive) | 56.2 µM (inactive) | > 100 µM (inactive) | > 100 µM (inactive) | – | – | – | > 100 µM (inactive) | – | > 100 µM (inactive) | – | > 100 µM (inactive) | > 100 µM (inactive) | > 100 µM (inactive) | > 100 µM (inactive) | > 100 µM (inactive) | > 100 µM (inactive) | – |
| O=C(Nc1cc(C(F)(F)F)ccc1Cl)C(=O)C(C(=O)c1ccc2ccccc2c1)C1OC(=O)c2ccccc21 (stereo not given) | 4.8 µM (inactive) | 31.3 µM (inactive) | 18 µM (inactive) | 7.26 µM (inactive) | 12.6 µM (inactive) | 13 µM (inactive) | – | – | 2.08 µM (inactive) | 13.9 µM (inactive) | – | 23.3 µM (inactive) | – | 6.32 µM (inactive) | 7.21 µM (inactive) | 13.5 µM (inactive) | 13.3 µM (inactive) | 0.881 µM (active) | 2.62 µM (inactive) | – |
| COc1ccc(CC2c3cc(OC)c(OC)c(OC)c3CC[N+]2(C)C)cc1Oc1ccc(CC2c3cc4c(c(OC)c3CC[N+]2(C)C)OCO4)cc1 (stereo not given) | > 100 µM (inactive) | > 100 µM (inactive) | > 100 µM (inactive) | > 100 µM (inactive) | > 100 µM (inactive) | > 100 µM (inactive) | > 100 µM (inactive) | > 100 µM (inactive) | – | – | 96.2 µM (inactive) | > 100 µM (inactive) | – | > 100 µM (inactive) | > 100 µM (inactive) | > 100 µM (inactive) | > 100 µM (inactive) | > 100 µM (inactive) | > 100 µM (inactive) | 80.9 µM (inactive) |
| NNC(=S)N/N=C(/C(=O)Nc1cc(Cl)ccc1Cl)C1C(=O)Nc2ccccc2[S+]1[O-] (stereo not given) | > 100 µM (inactive) | > 100 µM (inactive) | > 100 µM (inactive) | > 100 µM (inactive) | > 100 µM (inactive) | > 100 µM (inactive) | – | – | > 100 µM (inactive) | > 100 µM (inactive) | – | > 100 µM (inactive) | – | > 100 µM (inactive) | > 100 µM (inactive) | 55.1 µM (inactive) | > 100 µM (inactive) | > 100 µM (inactive) | 94.2 µM (inactive) | – |
| CC1=NN(c2nc(N)nc(CN3CCOCC3)n2)C(C)(C)C1 | > 100 µM (inactive) | > 100 µM (inactive) | 20.5 µM (inactive) | 26.5 µM (inactive) | > 100 µM (inactive) | > 100 µM (inactive) | > 100 µM (inactive) | > 100 µM (inactive) | > 100 µM (inactive) | > 100 µM (inactive) | > 100 µM (inactive) | 16.9 µM (inactive) | – | 14.9 µM (inactive) | 20.2 µM (inactive) | 31.8 µM (inactive) | > 100 µM (inactive) | > 100 µM (inactive) | 30.1 µM (inactive) | > 100 µM (inactive) |
| OCC1NC(COC2OC(CO)C(O)C(O)C2O)C(O)C(O)C1O (stereo not given) | > 100 µM (inactive) | – | > 100 µM (inactive) | > 100 µM (inactive) | > 100 µM (inactive) | > 100 µM (inactive) | > 100 µM (inactive) | > 100 µM (inactive) | > 100 µM (inactive) | > 100 µM (inactive) | > 100 µM (inactive) | > 100 µM (inactive) | > 100 µM (inactive) | – | > 100 µM (inactive) | – | > 100 µM (inactive) | > 100 µM (inactive) | > 100 µM (inactive) | – |
| COC(=O)c1ccc(/C=C(\c2ccc([N+](=O)[O-])o2)S(=O)(=O)c2ccc(NC(C)=O)cc2)o1 | 2.46 µM (inactive) | 19 µM (inactive) | 2.22 µM (inactive) | 2 µM (inactive) | 15.9 µM (inactive) | 0.0579 µM (active) | 10.1 µM (inactive) | 14.2 µM (inactive) | 4.2 µM (inactive) | 5.9 µM (inactive) | 5.36 µM (inactive) | 12.9 µM (inactive) | – | – | 15.4 µM (inactive) | 11.9 µM (inactive) | 13.4 µM (inactive) | 3.04 µM (inactive) | 1.77 µM (inactive) | 2.1 µM (inactive) |
| Cc1ccc(/C=c2\cc3oc(=O)c4cccc(c4-3)c2=O)cc1 | > 100 µM (inactive) | > 100 µM (inactive) | > 100 µM (inactive) | > 100 µM (inactive) | > 100 µM (inactive) | > 100 µM (inactive) | > 100 µM (inactive) | > 100 µM (inactive) | > 100 µM (inactive) | 72.1 µM (inactive) | > 100 µM (inactive) | 88.3 µM (inactive) | – | 61.4 µM (inactive) | > 100 µM (inactive) | > 100 µM (inactive) | – | – | 34.1 µM (inactive) | – |
| CN(C)c1c([O-])c(=[N+](C)C)c1=O | > 100 µM (inactive) | > 100 µM (inactive) | – | > 100 µM (inactive) | > 100 µM (inactive) | > 100 µM (inactive) | – | – | > 100 µM (inactive) | > 100 µM (inactive) | – | > 100 µM (inactive) | – | > 100 µM (inactive) | > 100 µM (inactive) | > 100 µM (inactive) | > 100 µM (inactive) | > 100 µM (inactive) | > 100 µM (inactive) | – |
| COc1ccc(CNc2nc3ccccc3nc2-c2cccs2)cc1 | 26.7 µM (inactive) | 43.4 µM (inactive) | 29.9 µM (inactive) | 38.4 µM (inactive) | – | – | > 100 µM (inactive) | 17.4 µM (inactive) | > 100 µM (inactive) | 37.4 µM (inactive) | 28.3 µM (inactive) | 68.9 µM (inactive) | – | 12.2 µM (inactive) | 15.1 µM (inactive) | 97.9 µM (inactive) | 28.9 µM (inactive) | > 100 µM (inactive) | 15.6 µM (inactive) | 23.4 µM (inactive) |
| N#CCc1nnc(N)o1 | > 100 µM (inactive) | > 100 µM (inactive) | – | > 100 µM (inactive) | > 100 µM (inactive) | > 100 µM (inactive) | – | – | > 100 µM (inactive) | > 100 µM (inactive) | – | > 100 µM (inactive) | – | > 100 µM (inactive) | > 100 µM (inactive) | > 100 µM (inactive) | > 100 µM (inactive) | > 100 µM (inactive) | > 100 µM (inactive) | – |
| O=C(OC1=CCN(Br)C1=O)C1=C(O)C(=O)N(Br)C1 | 17.8 µM (inactive) | 21.5 µM (inactive) | 30 µM (inactive) | 18.1 µM (inactive) | 26.4 µM (inactive) | 17.3 µM (inactive) | 53.2 µM (inactive) | > 100 µM (inactive) | – | 20.8 µM (inactive) | 33 µM (inactive) | 39.1 µM (inactive) | – | 20.9 µM (inactive) | 58.7 µM (inactive) | 25.1 µM (inactive) | 32.2 µM (inactive) | 54 µM (inactive) | 21.4 µM (inactive) | 27 µM (inactive) |
| CCCCC/C=C1\CCC(CN(C)C)C1=O (stereo not given) | 11.8 µM (inactive) | 15 µM (inactive) | 20.1 µM (inactive) | 15.9 µM (inactive) | 19.9 µM (inactive) | 14.7 µM (inactive) | – | – | 10.9 µM (inactive) | 15.6 µM (inactive) | – | 17.5 µM (inactive) | – | 6.79 µM (inactive) | 7.05 µM (inactive) | 26 µM (inactive) | 4.8 µM (inactive) | 15.5 µM (inactive) | 3.79 µM (inactive) | – |

Reference: ChEMBL document CHEMBL1201862, “PubChem BioAssay data set” (2004)
